This note sets out measurements from US6262075A, “Piperidone tachykinin antagonists” (Pfizer Inc, priority 1996, dated 2001).

The term Ki denotes a measure of affinity in units of concentration, obtained from inhibition or displacement. The low end stands for higher affinity, the high end for lower affinity.

Molecules are shown by their SMILES.

The target of this test is T1, human NK2 receptor (Homo sapiens, UniProt P21452).
T1 construct: expressed in transfected cells; host or cells: Chinese hamster ovary cells (membranes)
T1 sequence (P21452 1-398): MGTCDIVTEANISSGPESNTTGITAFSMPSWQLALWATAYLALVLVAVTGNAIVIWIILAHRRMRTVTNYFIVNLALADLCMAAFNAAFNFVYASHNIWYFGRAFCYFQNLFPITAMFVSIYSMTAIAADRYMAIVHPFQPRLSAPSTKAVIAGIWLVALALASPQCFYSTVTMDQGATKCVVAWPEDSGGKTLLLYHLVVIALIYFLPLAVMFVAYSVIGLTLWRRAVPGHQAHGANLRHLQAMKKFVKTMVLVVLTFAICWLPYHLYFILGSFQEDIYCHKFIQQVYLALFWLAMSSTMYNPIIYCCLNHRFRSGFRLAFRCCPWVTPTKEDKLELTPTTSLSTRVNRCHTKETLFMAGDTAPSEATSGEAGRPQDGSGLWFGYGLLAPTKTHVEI
The test is described as follows: affinity for the human NK2 receptor, competition with [^3 H] NKA for binding to membranes prepared from Chinese hamster ovary cells. The settings on record: membranes from Chinese hamster ovary cells expressing the cloned human NK2 receptor, negative logarithm of the molar affinity. Here is the method:
The affinity of the compounds of formula (I) and their salts for the human NK2 receptor can be tested in vitro by testing their ability to compete with [^3 H] or [^125 I]NKA (neurokinin A) for binding to membranes prepared from Chinese hamster ovary cells expressing the cloned human NK2 receptor. In this method, washed Chinese hamster ovary cell membranes are prepared as described for the previous method where IM9 cells are used instead. The membranes are incubated (90 min, 25° C.) with [^3 H] or [^125 I]NKA and with a range of concentrations of the test compound. Non-specific binding was determined in the presence of 10 μM NKA.
The affinity of a selection of the compounds of the preceding Examples for the human NK2 receptor was tested in vitro by testing their ability to compete with [^3 H] NKA for binding to membranes prepared from Chinese hamster ovary cells expressing the cloned human NK2 receptor using the method set out on page 26.
The "pKi" measurement is the negative logarithm of the molar affinity of the compound for the receptor as determined in radioligand binding assays using standard protocols.
In the case of `O=C1CC[C@](CCN2CC(N3CCC(F)CC3)C2)(c2ccc(Cl)c(Cl)c2)CN1CC1CCC(F)(F)CC1` [Example 1], the Ki is 0.631 nM. This lies in the sub-nanomolar range. The result for `O=C1CCC(CCN2CC(N3CCC(F)CC3)C2)(c2ccc(Cl)c(Cl)c2)CN1C1CCCCC1` (stereo not shown) [Example 2] reads 0.0501 nM.

The molecule `O=C1CCC(CCN2CC(N3CCC(F)CC3)C2)(c2ccc(Cl)c(Cl)c2)CN1CCC1CC1` (stereo not shown) [Example 4] gave a Ki of 2.51 nM.

Turning to `O=C1CCC(CCN2CC(N3CCC(F)CC3)C2)(c2ccc(Cl)c(Cl)c2)CN1C1(C2CC2)CCCC1` (stereo not shown) [Example 3], the Ki was 0.1 nM.
